Test results as given in patent publication US4545991A, “Difficidin and derivative antibacterials” (Merck & Co., Inc., priority 1983, dated 1985).
Values after ≈ are worked out from the molar mass of the structure shown. Where two headings read alike, the source gives them in different places.

Tests used:
Ps. aeruginosa RPL 11^+ = assay: MIC, in vitro agar dilution assay, aerobic bacteria (Table II); assay type: cell-based; details: Pseudomonas aeruginosa
[1] = system: C. difficile Clind^r, Fox^r; assay: MIC, in vitro agar dilution assay, anaerobic bacteria (Table III); assay type: cell-based; details: Clostridioides difficile, 10^6 CFU per spot, read-out: MIC
Actinomyces naeslundii = assay: as above; assay type: cell-based; details: 10^6 CFU per spot, read-out: MIC
B. fragilis Pen^r = assay: as above; assay type: cell-based; details: Bacteroides fragilis, 10^6 CFU per spot, read-out: MIC
[2] = system: B. distasonis Pen^r Fox^r; assay: as above; assay type: cell-based; details: Parabacteroides distasonis, 10^6 CFU per spot, read-out: MIC
Ser. marcescens = assay: MIC, in vitro agar dilution assay, aerobic bacteria (Table II); assay type: cell-based; details: Serratia marcescens, 10^6 CFU per spot, read-out: MIC
[3] = system: Bacteriodes fragilis Metr^r, Pen^r; assay: MIC, in vitro agar dilution assay, anaerobic bacteria (Table III); assay type: cell-based; details: 10^6 CFU per spot, read-out: MIC
[4] = system: Bifidobacterium dentium Fox^r; assay: as above; assay type: cell-based; details: Bifidobacterium dentium
C. difficile Fox^r = assay: as above; assay type: cell-based; details: Clostridioides difficile
E. coli TEM 2^+ DC 2 = assay: MIC, in vitro agar dilution assay, aerobic bacteria (Table II); assay type: cell-based; details: Escherichia coli
Ent. aerogenes = assay: as above; assay type: cell-based; details: Klebsiella aerogenes
Ent. cloacae P99^- = assay: as above; assay type: cell-based; details: Enterobacter cloacae
Sal. typhimurium = assay: as above; assay type: cell-based; details: Salmonella enterica, 10^6 CFU per spot, read-out: MIC
[5] = system: B. thetaiotaomicron Clind^r; assay: MIC, in vitro agar dilution assay, anaerobic bacteria (Table III); assay type: cell-based; details: Bacteroides thetaiotaomicron, 10^6 CFU per spot, read-out: MIC
Ent. cloacae P99^+ = assay: MIC, in vitro agar dilution assay, aerobic bacteria (Table II); assay type: cell-based; details: Enterobacter cloacae
E. coli TEM 2^+ = assay: as above; assay type: cell-based; details: Escherichia coli
Prot. vulgaris = assay: as above; assay type: cell-based; details: Proteus vulgaris, 10^6 CFU per spot, read-out: MIC
Ps. aeruginosa [6] = assay: as above; assay type: cell-based; details: Pseudomonas aeruginosa
Veillonella alcalescens = assay: MIC, in vitro agar dilution assay, anaerobic bacteria (Table III); assay type: cell-based; details: Veillonella parvula, 10^6 CFU per spot, read-out: MIC
K. pneumoniae Kl^+ = assay: MIC, in vitro agar dilution assay, aerobic bacteria (Table II); assay type: cell-based; details: Klebsiella pneumoniae, 10^6 CFU per spot, read-out: MIC
E. coli = assay: as above; assay type: cell-based; details: Escherichia coli, 10^6 CFU per spot, read-out: MIC
Source text: (§1) Further evaluations of the antibacterial spectrum of difficidin and oxydifficidin were undertaken, especially as compared to the antibacterial spectrum of the valuable antibiotic cefoxitin, which is well known for its wide spectrum of antibacterial activity. An in vitro agar dilution assay was used, inoculum 10^6 CFU per spot. Table II below illustrates the results obtained for various aerobic bacteria, and Table III illustrates the results obtained for various anaerobic bacteria.

S. aureus = assay: as above; assay type: cell-based; details: Staphylococcus aureus, 10^6 CFU per spot, read-out: MIC
Source text: as §1

Strep. faecalis = assay: as above; assay type: cell-based; details: Enterococcus faecalis, 10^6 CFU per spot, read-out: MIC
Source text: as §1

[7] = system: B. thetaiotaomicron Clind^r, NCCLS control strain; assay: MIC, in vitro agar dilution assay, anaerobic bacteria (Table III); assay type: cell-based; details: Bacteroides thetaiotaomicron, 10^6 CFU per spot, read-out: MIC
C. ramosum = assay: as above; assay type: cell-based; details: Thomasclavelia ramosa, 10^6 CFU per spot, read-out: MIC
[8] = system: Fusobacterium mortiferum Fox^r; assay: as above; assay type: cell-based; details: 10^6 CFU per spot, read-out: MIC
[9] = system: B. distasonis Pen^r Fox^r Clind^r; assay: as above; assay type: cell-based; details: Parabacteroides distasonis, 10^6 CFU per spot, read-out: MIC
Prot. morganii Sm^R = assay: MIC, in vitro agar dilution assay, aerobic bacteria (Table II); assay type: cell-based; details: Morganella morganii
[10] = system: B. fragilis NCCLS control strain; assay: MIC, in vitro agar dilution assay, anaerobic bacteria (Table III); assay type: cell-based; details: Bacteroides fragilis, 10^6 CFU per spot, read-out: MIC
E. coli DC 2 = assay: MIC, in vitro agar dilution assay, aerobic bacteria (Table II); assay type: cell-based; details: Escherichia coli, DC2
S. aureus Gm^R Meth^R = assay: as above; assay type: cell-based; details: Staphylococcus aureus
Eubacterium limosum = assay: MIC, in vitro agar dilution assay, anaerobic bacteria (Table III); assay type: cell-based; details: 10^6 CFU per spot, read-out: MIC
[11] = system: Clostridium perfringens NCCLS control strain; assay: microbe, parasite or virus in culture; assay type: cell-based; details: Clostridium perfringens
Prot. mirabilis Gm^R = assay: MIC, in vitro agar dilution assay, aerobic bacteria (Table II); assay type: cell-based; details: Proteus mirabilis, 10^6 CFU per spot, read-out: MIC
Ps. aeruginosa [12] = assay: as above; assay type: cell-based; details: Pseudomonas aeruginosa; remark: listed apart in the source
[13] = system: Peptostreptococcus anaerobius; assay: MIC, in vitro agar dilution assay, anaerobic bacteria (Table III); assay type: cell-based; details: 10^6 CFU per spot, read-out: MIC
B. ovatus Pen^r = assay: as above; assay type: cell-based; details: Bacteroides ovatus, 10^6 CFU per spot, read-out: MIC
Propionibacterium acnes = assay: as above; assay type: cell-based; details: Cutibacterium acnes, 10^6 CFU per spot, read-out: MIC
[14] = system: B. fragilis Clind^r Fox^r Tet^r; assay: as above; assay type: cell-based; details: Bacteroides fragilis, 10^6 CFU per spot, read-out: MIC
[15] = system: Klebsiella pneumoniae MB 4005; assay: standard mouse protection test, experimental systemic infection; assay type: in vivo, CD1 female mice; details: Klebsiella pneumoniae, MB4005, ip, 168 h, × 2 i.p. doses (immediately after infection and 6 hours later), 7 days
Description: The antibacterial efficacy of difficidin and its derivatives was further determined in standard mouse protection tests. An experimental systemic infection was produced in CD1 female mice (Charles River Breeding Laboratories, Wilmington, MA) by the intraperitoneal injection of a suitably diluted broth culture of Klebsiella pneumoniae MB 4005. The test antibacterial compounds and the control drug (streptomycin) were administered parenterally (intraperitoneally) immediately after infection and again 6 hours later. At least 4 fourfold dilutions of each agent were tested. There were 5 mice at each dose level. […] Under the conditions of the test, all infected untreated mice died within 48 hours.
Mice were protected by the administration of the test antibacterial compounds or streptomycin at the median effective doses shown in Table IV below.

CO[C@@]1(NC(=O)Cc2cccs2)C(=O)N2C(C(=O)O)=C(COC(N)=O)CS[C@@H]21 [Cefoxitin, cefoxitin, reference compound]
MIC (Ps. aeruginosa RPL 11^+): > 128 µg/mL | MIC [1]: 64 µg/mL (≈ 150 µM) | MIC (Actinomyces naeslundii): 0.015 µg/mL (≈ 0.0351 µM) | MIC (B. fragilis Pen^r): 8 µg/mL (≈ 18.7 µM) | MIC [2]: 64 µg/mL (≈ 150 µM) | MIC (Ser. marcescens): 64 µg/mL (≈ 150 µM) | MIC [3]: 2 µg/mL (≈ 4.68 µM) | MIC [4]: 4 µg/mL (≈ 9.36 µM) | MIC (C. difficile Fox^r): 128 µg/mL (≈ 299 µM) | MIC (E. coli TEM 2^+ DC 2): 1 µg/mL (≈ 2.34 µM) | MIC (Ent. aerogenes): > 128 µg/mL | MIC (Ent. cloacae P99^-): 16 µg/mL (≈ 37.4 µM) | MIC (Sal. typhimurium): 8 µg/mL (≈ 18.7 µM) | MIC [5]: 16 µg/mL (≈ 37.4 µM) | MIC (Ent. cloacae P99^+): > 128 µg/mL | MIC (E. coli TEM 2^+): 4 µg/mL (≈ 9.36 µM) | MIC (Prot. vulgaris): 16 µg/mL (≈ 37.4 µM) | MIC (Ps. aeruginosa [6]): > 128 µg/mL | MIC (Veillonella alcalescens): 0.5 µg/mL (≈ 1.17 µM) | MIC (K. pneumoniae Kl^+): 4 µg/mL (≈ 9.36 µM) | MIC (E. coli): > 128 µg/mL | MIC (S. aureus; first unmarked strain): 2 µg/mL (≈ 4.68 µM) | MIC (S. aureus; second unmarked strain): 2 µg/mL (≈ 4.68 µM) | MIC (Strep. faecalis): > 128 µg/mL | MIC [7]: 16 µg/mL (≈ 37.4 µM) | MIC (C. ramosum): 4 µg/mL (≈ 9.36 µM) | MIC [8]: 16 µg/mL (≈ 37.4 µM) | MIC [9]: 16 µg/mL (≈ 37.4 µM) | MIC (Prot. morganii Sm^R): 16 µg/mL (≈ 37.4 µM) | MIC [10]: 4 µg/mL (≈ 9.36 µM) | MIC (E. coli DC 2): 1 µg/mL (≈ 2.34 µM) | MIC (S. aureus Gm^R Meth^R): > 128 µg/mL | MIC (Eubacterium limosum): 0.25 µg/mL (≈ 0.585 µM) | MIC [11]: 0.5 µg/mL (≈ 1.17 µM) | MIC (Prot. mirabilis Gm^R): 32 µg/mL (≈ 74.9 µM) | MIC (Ps. aeruginosa [12]): > 128 µg/mL | MIC [13]: ≤ 0.008 µg/mL | MIC (B. ovatus Pen^r): 8 µg/mL (≈ 18.7 µM) | MIC (Propionibacterium acnes): ≤ 0.008 µg/mL | MIC [14]: 32 µg/mL (≈ 74.9 µM)

[H]/N=C(/N)N[C@H]1[C@H](O)[C@@H](O)[C@H](O[C@@H]2O[C@@H](C)[C@](O)(C=O)[C@H]2O[C@@H]2O[C@@H](CO)[C@H](O)[C@@H](O)[C@@H]2NC)[C@@H](N/C(N)=N\[H])[C@@H]1O [Streptomycin, streptomycin, reference compound]
ED50 ([15]; Test No. 1): 0.38 mg/kg | ED50 ([15]; Test No. 2): 1.41 mg/kg | ED50 ([15]; Test No. 3): 0.38 mg/kg
